Results published in patent publication US11851710B2, “Methods and materials for identifying metastatic malignant skin lesions and treating skin cancer” (Mayo Foundation for Medical Education and Research, priority 2014, dated 2023).
Values joined by “and” are separate entries in the source; they are usually repeats but may differ in a detail not shown here. Equal entries are not always repeated. Where two headings read alike, the source gives them in different places.

Legend:
M12 cells [1] = experiment: M12 invasion into Matrigel-embedded scratch wounds; type: cell-based, human; settings: 2 mg/mL Matrigel, compared with Dabrafenib
Description: (§1) FIGS. 15A-15J illustrate that pentamidine inhibits SPP1 expression, proliferation, and invasion of melanoma cells. […] FIGS. 15B-15D illustrate that pentamidine inhibits SPP1 promoter activity in the DUAL-GLO® assay (FIG. 15B), but also by quantitative PCR in normal WM858 (FIG. 15C) and M12 cells (FIG. 15D). […] FIG. 15I is a chart illustrating that pentamidine injections reduce SPP1, ([…], and t-PA (PLAT) mRNA expression in M12 PDX. Average of three mice is shown. PENTA, Pentamidine; DABRA, Dabrafenib. WM858 and M12 are B-rafV600E metastatic melanoma cells.
(§2) Pentamidine inhibited SPP1 mRNA in both WM858 (FIG. 15C) and M12 cells (FIG. 15D). […] Next, a red-fluorescent nuclear protein was stably expressed in M12 cells to automatically count nuclei over time (using the IncuCyte ZOOM system, Essen Bioscience), a surrogate measure of cell proliferation. Pentamidine reduced M12 proliferation with an ED50 of 40 μM.

in vitro [2] = type: cell-based; settings: human
Experimental: as §2

SPP1 promoter = SPP1 promoter dual luciferase (DUAL-GLO) screen of LOPAC library in WM858 cells; type: cell-based; settings: WM858 cells with luciferase-tagged SPP1 promoter
Description: FIG. 14 depict the luciferase construct for high-throughput screening. Genomic structure of the SPP1 gene is shown as well as a targeting approach. A DNA double-strand break was induced in exon (E) 2 of SPP1, 3′ of the ATG start codon by a custom-made zinc finger nuclease (ZFN), arrow. A targeting vector with 500 bp homology arms (HA, middle), Hygromycin resistance (HYGRO), a target promoter-driven firefly luciferase (LUC2P), and a CMV-pomoter driven renilla luciferase (HRLUC) was offered for repair at the time of the double-strand break. PA, PA terminator signal. Blue boxes, untranslated region; black boxes, translated region.
Osteopontin (SPP1) is a proto-typical cancer-associated extracellular matrix gene and ligand of αv and α5β1 integrins. SPP1 is highly overexpressed in melanoma (Talantov et al., Clin. Cancer Res. 11:7234-42 (2005)) and its upregulation correlates with metastasis risk (Conway et al., Clin. Cancer Res. 15:6939-6946 (2009) and Mitra et al., Br. J. Cancer 103:1229-1236 (2010)). To rapidly screen chemical compounds for their ability to inhibit SPP1 expression in vitro, the endogenous SPP1 promoter of WM858 melanoma cells was tagged with a dual luciferase system using zinc finger nucleases. The SPP1-promoter drives firefly luciferase tagged with a protein degradation sequence (hPEST). A CMV-promoter driven renilla luciferase was used as a loading control (FIG. 14). […]

SPP1 mRNA [3] = experiment: SPP1 mRNA by quantitative PCR in M12 cells; type: cell-based, human
Description: as §1, §2

[4] = patients, 4 mg/kg i.m. daily (FDA labeling); cited from earlier work
t-PA (PLAT) mRNA = t-PA (PLAT) mRNA in M12 xenograft tumor tissue by quantitative PCR; type: in vivo, mice; settings: all doses i.m. for six days
Description: as §1
(§3) To determine whether Pentamidine reduces SPP1 expression in vivo, M12 cells were injected intradermally into female nude mice and left to grow until xenograft tumors formed (FIGS. 15H and 15I). Then, four different doses of Pentamidine were injected intramuscularly (i.m.) into groups of three mice for six consecutive days. It was previously shown that serum concentration in patients injected with 4 mg/kg Pentamidine i.m. daily (FDA labeling) range from 0.2-1.4 μg/mL (0.3-2.4 μM). In rats, slightly lower levels can be achieved using 10 mg/kg i.m. daily (0.1-0.4 μg/mL) (Bernard et al., J. Inf. Dis. 152:750-754 (1985) and Waalkes et al., Clin. Pharma. Therap. 11:505-512 (1969)). […] Tumors were subsequently harvested, lysed, and analyzed by quantitative PCR. […]

SPP1 mRNA [5] = experiment: SPP1 mRNA in M12 xenograft tumor tissue by quantitative PCR; type: in vivo, mice; settings: all doses i.m. for six days
Description: as §1, §3

β3 integrin mRNA = β3 integrin mRNA in M12 xenograft tumor tissue by quantitative PCR; type: in vivo, mice; settings: all doses i.m. for six days
Description: as §1, §3

[6] = rats, 10 mg/kg i.m. daily; cited from earlier work
SPP1 mRNA [7] = experiment: SPP1 mRNA by quantitative PCR in WM858 cells; type: cell-based
Description: as §1, §2

[8] = Tolerability of i.m. Pentamidine in nude mice with intradermal M12 xenografts; type: in vivo; settings: six consecutive days, female nude mice
Experimental: To determine whether Pentamidine reduces SPP1 expression in vivo, M12 cells were injected intradermally into female nude mice and left to grow until xenograft tumors formed (FIGS. 15H and 15I). Then, four different doses of Pentamidine were injected intramuscularly (i.m.) into groups of three mice for six consecutive days. It was previously shown that serum concentration in patients injected with 4 mg/kg Pentamidine i.m. daily (FDA labeling) range from 0.2-1.4 μg/mL (0.3-2.4 μM). In rats, slightly lower levels can be achieved using 10 mg/kg i.m. daily (0.1-0.4 μg/mL) (Bernard et al., J. Inf. Dis. 152:750-754 (1985) and Waalkes et al., Clin. Pharma. Therap. 11:505-512 (1969)). In the current study, at the highest Pentamidine dose (80 mg/kg/daily), all mice died. Mice survived at 40 mg/kg/day, but appeared sick. […] Tumors were subsequently harvested, lysed, and analyzed by quantitative PCR. All doses of Pentamidine led to a reduction of SPP1, β3 integrin, and t-PA (PLAT) mRNA expression in tumor tissue (FIG. 15J).

β3 integrin (ITGB3) = experiment: Expression of β3 integrin (ITGB3) in melanoma cells; type: cell-based; settings: FIG. 15E
Description: as §1, §2

M12 cells [9] = experiment: M12 proliferation, automated count of red-fluorescent nuclei (IncuCyte ZOOM); type: cell-based; settings: Homo sapiens, nuclei counted over time, read-out: M12 proliferation ED50
Experimental: Automated quantification of cell proliferation was by the INCUCYTE™ kinetic imaging system (Essen Bioscience). Approximately 2,000 cells were seeded into a 96-well cell culture dish, eight replicates per condition over the indicated time. Data analysis was with the INCUCYTE ZOOM software package.
as §2

t-PA (PLAT) = experiment: Expression of t-PA (PLAT) in melanoma cells; type: cell-based; settings: FIG. 15E
Description: as §1, §2

in vitro [10] = type: cell-based; settings: human; remark: listed apart in the source
Experimental: as §2

β3 integrin = experiment: Cell surface β3 integrin expression by flow cytometry after overnight drug incubation; type: cell-based; settings: B-rafV600E melanoma cells, 5 μM
Experimental: (§4) FIGS. 13A-13P illustrate B-raf^V600E inhibits FAK to promote integrin surface expression. FIG. 13A: shRNAs 841, 102 and NC were induced in WM858 cells by IPTG for 5 days (n=4) followed by RNA quantitation. Genes regulated at 0 vs. 0.05 mM IPTG in 841 and 102 but not NC cells are shown. These were: ITGB3 (orange), FAK (blue). Light orange, light blue: up- or down-regulation, respectively, by either 841 or 102 shRNA. FIG. 13B: WM858 cells were transfected with FAK or EGFP cDNA. Regulated genes, FAK over EGFP cells, are shown in orange (up) or blue (down) (n=4). FIG. 13C: Flow cytometry of NC, 841 and 102 cells (un-induced vs. 0.05 mM IPTG for 5 days). FIG. 13D: Integrin cell surface mean intensities; mean.+−.s.d.; n=3; *, p<0.05; p values, Student's t-test; ns, not significant. FIG. 13E: Visualization of focal adhesions by paxillin staining on micropatterned fibronectin disks. FIGS. 13F and 13G: Proliferation speed in the absence (FIG. 13F) or presence (FIG. 13G) of FAK shRNAs; mean.+−.s.d.; n=8; *, p<0.05; p values, Student's t-test; ns, not significant. FIGS. 13H and 13I: Scratch wound healing in IPTG-induced cells; representative experiment (n=3). FIGS. 13J and 13K: Effect of IPTG-induced FAK knock-down on total (t) and phospho (p)-ERK; mean.+−.s.d.; n=4; *, p<0.05; p values, Student's t-test. FIG. 13L: Cell surface β1 and β3 integrin expression (flow cytometry) in B-raf^V600E and wild-type cells after overnight drug incubation; % expression relative to DMSO is shown. FIGS. 13M-13O: FAK/ERK levels in NHM and WM858 after overnight drug incubation (FIG. 13M); quantification of FAK (FIG. 13N) and ERK phosphorylation (FIG. 13O); mean.+−.s.d.; n=4; *, p<0.05; p values, Student's t-test. FIG. 13P: ERK activity in NC, 841 and 102 cells (0.05 mM IPTG for 5 days) after overnight drug incubation.
Isopropyl β-D-1-thiogalactopyranoside (IPTG), 4′,6-Diamidino-2-phenylindole dihydrochloridemitomycin (DAPI), blebbistatin and PF-573228 were purchased from Sigma-Aldrich. Dabrafenib (GSK2118436) was purchased from Selleckchem. FAK antibody (06-543) was from EMD MILLIPORE®. FAK pY397 (44624G) antibody was from Life Technologies. Total ERK (9102) and phospho-ERK (4370) antibodies were from Cell Signaling. Paxillin (610051), ITGB3 (555754), ITGB1 (555443) and mouse IgG1 kappa (555749) antibodies were from BD Transduction Labs. Drugs were used at 5 μM final concentration. EGFP control cDNA was from (Lonza). […]
PYK2, a FAK-like tyrosine kinase, could not be detected in WM858 cells, irrespective of endogenous FAK levels. WM858 cells carrying control (NC) or FAK-specific shRNAs (841 and 102) were then exposed to IPTG for 5 days, and changes in adhesion gene expression were subsequently quantified by PCR. […]

β1 integrin = experiment: Cell surface β1 integrin expression by flow cytometry after overnight drug incubation; type: cell-based; settings: 5 μM
Experimental: as §4
Isopropyl β-D-1-thiogalactopyranoside (IPTG), 4′,6-Diamidino-2-phenylindole dihydrochloridemitomycin (DAPI), blebbistatin and PF-573228 were purchased from Sigma-Aldrich. Dabrafenib (GSK2118436) was purchased from Selleckchem. FAK antibody (06-543) was from EMD MILLIPORE®. FAK pY397 (44624G) antibody was from Life Technologies. Total ERK (9102) and phospho-ERK (4370) antibodies were from Cell Signaling. Paxillin (610051), ITGB3 (555754), ITGB1 (555443) and mouse IgG1 kappa (555749) antibodies were from BD Transduction Labs. Drugs were used at 5 μM final concentration. EGFP control cDNA was from (Lonza). FAK cDNA was obtained from A. Huttenlocher, Addgene plasmid number 35039 (Chan et al., J. Biol. Chem., 285:11418-26 (2010)).
PYK2, a FAK-like tyrosine kinase, could not be detected in WM858 cells, irrespective of endogenous FAK levels. WM858 cells carrying control (NC) or FAK-specific shRNAs (841 and 102) were then exposed to IPTG for 5 days, and changes in adhesion gene expression were subsequently quantified by PCR. […] Moreover, Dabrafenib-induced blockage of ERK activity could be partially reversed by a complete FAK knock-down in 102 cells (FIG. 13P).

## N=C(N)c1ccc(OCCCCCOc2ccc(C(=N)N)cc2)cc1 [Pentamidine, 4,4′-[pentane-1,5-diylbis(oxy)]dibenzenecarboximidamide]
M12 cells [1]
  Matrigel invasion: more effectively than Dabrafenib
In vitro [2]
  EC50: > 100 µM
SPP1 promoter
  Normalized ratio: firefly signal normalized to renilla signal, then to DMSO-treated control wells: < 0.25
SPP1 mRNA [3]
  SPP1 mRNA: inhibited
[4]
  serum concentration: 0.2-1.4 μg/mL and 0.3-2.4 μM
t-PA (PLAT) mRNA
  t-PA (PLAT) mRNA expression in tumor tissue: reduction
SPP1 mRNA [5]
  SPP1 mRNA expression in tumor tissue: reduction
β3 integrin mRNA
  β3 integrin mRNA expression in tumor tissue: reduction
[6]
  serum concentration: 100 to 400 ng/mL
SPP1 mRNA [7]
  SPP1 mRNA: inhibited
[8]; 40 mg/kg/day i.m.
  survival / tolerability of mice: appeared sick
[8]; 80 mg/kg/daily i.m.
  survival / tolerability of mice: all mice died
[8]; other two doses, specifically 8 mg/kg/day i.m.
  survival / tolerability of mice: well tolerated
β3 integrin (ITGB3)
  expression of β integrin: reduced
M12 cells [9]
  EC50: 40 µM
t-PA (PLAT)
  expression of t-PA (PLAT): reduced
In vitro [10]
  EC50: > 100 µM

## Cc1ccc2c(c1)C(=O)C1(O)CCN(c3ccccc3)C1=N2 (centres unmarked) [blebbistatin]
β3 integrin
  β3 integrin surface levels: induced
β1 integrin; B-raf wild-type melanoma cells
  β1 integrin surface levels: not
β1 integrin; B-rafV600E melanoma cells
  β1 integrin surface levels: induced
